Reference: the NIST ThermoML archive (doi:10.1016/j.jct.2016.10.010)
Several values for one entry are separate records, joined by “and”; a condition that tells them apart may be missing. Equal values may be shown once.

What was measured:
[1] = Molar enthalpy of transition or fusion; settings: Crystal; DSC
[2] = for vapor or sublimation pressure: Transpiration method; for Normal melting temperature: DTA

C[C@H]1COc2c(N3CCN(C)CC3)c(F)cc3c(=O)c(C(=O)O)cn1c23 [levofloxacin]
Settings	Molar enthalpy of transition or fusion [kcal/mol]
[1]	5.26

[2], Crystal
Settings	vapor or sublimation pressure [kPa]
437.15 K	5.71e-06
439.15 K	6.66e-06
441.15 K	8.35e-06
443.15 K	9.72e-06
445.15 K	1.135e-05
447.15 K	1.364e-05
449.15 K	1.607e-05
451.15 K	1.952e-05
453.15 K	2.326e-05
455.15 K	2.722e-05
457.15 K	3.146e-05
459.15 K	3.689e-05

[2]
Settings	Normal melting temperature
Crystal	233.0 °C
Metastable crystal	227.0 °C and 230.5 °C

CCn1cc(C(=O)O)c(=O)c2cc(F)c(N3CCNCC3)cc21 [norfloxacin]
Settings	Molar enthalpy of transition or fusion [kcal/mol]
[1]	8.63

[2], Crystal
Settings	vapor or sublimation pressure [kPa]
423.15 K	1.3e-06
425.15 K	1.57e-06
427.15 K	1.86e-06
429.15 K	2.21e-06
431.15 K	2.66e-06
432.15 K	2.85e-06
434.15 K	3.35e-06
436.15 K	3.92e-06
438.15 K	4.53e-06
440.15 K	5.26e-06
442.15 K	6.02e-06
444.15 K	7.01e-06
446.15 K	8.32e-06

[2]
Settings	Normal melting temperature [°C]	Triple point temperature [K]
Crystal	220.4	–
Crystal 2, DSC	–	468.7

CCN1CCN(c2cc3c(cc2F)c(=O)c(C(=O)O)cn3C2CC2)CC1 [Enrofloxacin]
Settings	Molar enthalpy of transition or fusion [kcal/mol]
[1]	7.86

[2], Crystal
Settings	vapor or sublimation pressure [kPa]
431.15 K	1.79e-06
433.15 K	2.13e-06
435.15 K	2.5e-06
437.15 K	2.92e-06
439.15 K	3.41e-06
441.15 K	4.04e-06
443.15 K	4.71e-06
445.15 K	5.49e-06
447.15 K	6.61e-06
449.15 K	7.56e-06
451.15 K	8.91e-06
453.15 K	1.035e-05

Settings	Normal melting temperature [°C]
[2], Crystal	221.6

O=C(O)c1cn(C2CC2)c2cc(N3CCNCC3)c(F)cc2c1=O [ciprofloxacin]
[2], Crystal
Settings	vapor or sublimation pressure [kPa]
436.15 K	1.95e-06
438.15 K	2.43e-06
440.15 K	2.85e-06
442.15 K	3.54e-06
444.15 K	4.3e-06
446.15 K	4.97e-06
448.15 K	5.94e-06
450.15 K	7.09e-06
452.15 K	8.4e-06
454.15 K	1.045e-05
456.15 K	1.228e-05
458.15 K	1.461e-05
460.15 K	1.764e-05

Settings	Normal melting temperature [°C]
[2], Crystal	270

O=C(O)c1ccccc1 [benzoic acid]
[2], Crystal
Settings	vapor or sublimation pressure [kPa]
307.15 K	0.000285
323.15 K	0.001674
338.15 K	0.007513
354.15 K	0.0316
